The target of one test is T1, ADP/ATP translocase 2 (Homo sapiens, UniProt P05141).
T1 sequence (P05141 whole entry): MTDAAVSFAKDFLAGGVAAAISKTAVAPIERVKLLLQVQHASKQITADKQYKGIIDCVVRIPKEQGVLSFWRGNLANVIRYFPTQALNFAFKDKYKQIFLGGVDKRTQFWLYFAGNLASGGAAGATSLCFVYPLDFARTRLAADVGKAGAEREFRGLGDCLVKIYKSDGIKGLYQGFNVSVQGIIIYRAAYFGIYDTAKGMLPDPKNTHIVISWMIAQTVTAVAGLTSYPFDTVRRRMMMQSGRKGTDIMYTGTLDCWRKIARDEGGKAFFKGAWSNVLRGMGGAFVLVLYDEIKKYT

Test [1] deals with T2, Serine/threonine-protein kinase Chk1 (Homo sapiens, UniProt O14757).
T2 sequence (O14757 whole entry): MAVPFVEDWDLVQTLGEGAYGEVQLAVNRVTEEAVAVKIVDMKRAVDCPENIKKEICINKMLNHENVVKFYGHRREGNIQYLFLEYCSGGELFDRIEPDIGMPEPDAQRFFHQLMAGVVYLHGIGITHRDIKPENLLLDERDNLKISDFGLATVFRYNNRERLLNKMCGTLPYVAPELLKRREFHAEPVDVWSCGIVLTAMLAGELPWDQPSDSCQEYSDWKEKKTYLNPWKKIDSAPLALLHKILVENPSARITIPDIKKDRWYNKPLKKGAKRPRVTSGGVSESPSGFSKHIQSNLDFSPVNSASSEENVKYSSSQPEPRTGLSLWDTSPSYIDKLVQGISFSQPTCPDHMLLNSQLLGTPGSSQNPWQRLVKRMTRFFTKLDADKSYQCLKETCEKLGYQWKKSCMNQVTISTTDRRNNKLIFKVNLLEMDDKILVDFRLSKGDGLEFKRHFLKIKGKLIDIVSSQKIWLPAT

Test [2] concerns the target Putative heat shock protein HSP 90-beta 2 (Homo sapiens, UniProt Q58FF8).
Test [3] has as its target Interleukin-1 receptor-associated kinase 1 (Homo sapiens, UniProt P51617).
The target in test [4] is Mitogen-activated protein kinase 3 (Homo sapiens, UniProt P27361).
Chain of Mitogen-activated protein kinase 3 (P27361 whole entry): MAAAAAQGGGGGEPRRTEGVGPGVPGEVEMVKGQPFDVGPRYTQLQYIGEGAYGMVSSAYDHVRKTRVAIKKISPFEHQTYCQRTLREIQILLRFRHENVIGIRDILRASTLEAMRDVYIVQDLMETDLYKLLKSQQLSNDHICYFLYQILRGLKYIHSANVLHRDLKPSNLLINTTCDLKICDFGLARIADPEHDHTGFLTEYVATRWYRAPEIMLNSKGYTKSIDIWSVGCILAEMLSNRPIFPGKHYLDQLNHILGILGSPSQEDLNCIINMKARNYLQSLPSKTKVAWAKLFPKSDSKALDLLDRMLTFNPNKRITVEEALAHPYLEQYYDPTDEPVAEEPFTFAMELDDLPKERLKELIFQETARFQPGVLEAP
For test [5], the target named is Ribosomal protein S6 kinase alpha-1 (Homo sapiens, UniProt Q15418).
Chain of Ribosomal protein S6 kinase alpha-1 (Q15418 whole entry): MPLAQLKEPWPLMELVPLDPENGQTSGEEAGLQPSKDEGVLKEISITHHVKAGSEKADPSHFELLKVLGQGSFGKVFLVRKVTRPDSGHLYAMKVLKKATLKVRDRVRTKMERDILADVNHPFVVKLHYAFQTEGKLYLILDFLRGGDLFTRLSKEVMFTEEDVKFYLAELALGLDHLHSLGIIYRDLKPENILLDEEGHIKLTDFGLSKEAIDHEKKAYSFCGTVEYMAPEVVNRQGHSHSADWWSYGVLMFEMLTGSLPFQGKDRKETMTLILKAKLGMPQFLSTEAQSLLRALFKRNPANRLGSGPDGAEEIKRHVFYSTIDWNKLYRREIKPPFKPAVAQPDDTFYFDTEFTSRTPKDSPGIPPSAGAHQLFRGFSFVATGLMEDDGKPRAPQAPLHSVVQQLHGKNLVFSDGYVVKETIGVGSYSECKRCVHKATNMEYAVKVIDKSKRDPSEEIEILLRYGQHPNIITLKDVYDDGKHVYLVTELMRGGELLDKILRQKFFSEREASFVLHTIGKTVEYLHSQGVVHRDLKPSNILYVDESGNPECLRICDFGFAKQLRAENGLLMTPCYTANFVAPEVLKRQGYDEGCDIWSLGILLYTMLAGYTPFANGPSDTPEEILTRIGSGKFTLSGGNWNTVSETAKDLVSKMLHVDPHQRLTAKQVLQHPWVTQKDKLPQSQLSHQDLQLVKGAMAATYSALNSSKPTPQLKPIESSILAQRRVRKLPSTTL
In test [6] the target is Serine/threonine-protein kinase/endoribonuclease IRE1 (Homo sapiens, UniProt O75460).
Chain of Serine/threonine-protein kinase/endoribonuclease IRE1 (O75460 whole entry, canonical isoform): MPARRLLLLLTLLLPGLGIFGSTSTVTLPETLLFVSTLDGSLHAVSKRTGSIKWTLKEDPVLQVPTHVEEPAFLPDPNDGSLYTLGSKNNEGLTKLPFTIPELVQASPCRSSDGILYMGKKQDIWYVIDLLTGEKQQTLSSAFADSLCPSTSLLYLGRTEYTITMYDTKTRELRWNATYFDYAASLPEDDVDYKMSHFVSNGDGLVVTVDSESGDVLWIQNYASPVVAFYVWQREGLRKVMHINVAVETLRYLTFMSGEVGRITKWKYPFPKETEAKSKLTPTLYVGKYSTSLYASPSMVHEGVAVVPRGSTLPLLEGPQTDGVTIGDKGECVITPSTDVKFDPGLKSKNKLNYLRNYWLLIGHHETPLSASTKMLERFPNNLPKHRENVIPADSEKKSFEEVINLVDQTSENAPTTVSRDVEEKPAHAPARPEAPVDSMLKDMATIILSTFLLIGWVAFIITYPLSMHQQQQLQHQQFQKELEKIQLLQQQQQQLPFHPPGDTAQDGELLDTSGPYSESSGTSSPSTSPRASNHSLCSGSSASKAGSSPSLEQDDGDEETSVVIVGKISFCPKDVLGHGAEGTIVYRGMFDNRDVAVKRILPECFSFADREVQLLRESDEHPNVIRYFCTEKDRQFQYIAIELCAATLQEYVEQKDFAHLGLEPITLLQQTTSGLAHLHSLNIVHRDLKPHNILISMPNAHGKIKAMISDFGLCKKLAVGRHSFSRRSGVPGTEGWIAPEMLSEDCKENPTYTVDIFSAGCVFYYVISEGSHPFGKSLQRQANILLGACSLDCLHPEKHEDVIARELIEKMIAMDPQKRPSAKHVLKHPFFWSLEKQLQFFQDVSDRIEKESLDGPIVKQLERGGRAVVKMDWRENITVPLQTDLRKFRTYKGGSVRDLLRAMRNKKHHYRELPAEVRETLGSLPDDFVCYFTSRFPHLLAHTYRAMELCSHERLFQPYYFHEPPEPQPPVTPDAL
Test [7] has as its target T3, Phosphorylase b kinase gamma catalytic chain, liver/testis isoform (Homo sapiens, UniProt P15735).
T3 sequence (P15735 whole entry): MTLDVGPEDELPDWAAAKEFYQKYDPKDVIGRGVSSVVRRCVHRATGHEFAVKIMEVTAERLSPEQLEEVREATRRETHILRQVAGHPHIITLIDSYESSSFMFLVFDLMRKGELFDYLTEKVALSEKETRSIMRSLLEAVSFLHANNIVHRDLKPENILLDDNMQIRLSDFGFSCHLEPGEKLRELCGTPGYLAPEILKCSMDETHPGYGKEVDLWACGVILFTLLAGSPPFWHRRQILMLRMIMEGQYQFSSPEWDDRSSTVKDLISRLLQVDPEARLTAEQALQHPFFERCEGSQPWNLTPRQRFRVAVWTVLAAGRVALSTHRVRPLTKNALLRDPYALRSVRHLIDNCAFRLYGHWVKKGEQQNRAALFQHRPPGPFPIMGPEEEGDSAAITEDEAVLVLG

Test [8] has as its target T4, Breakpoint cluster region protein (Homo sapiens, UniProt P11274).
T4 sequence (P11274 whole entry): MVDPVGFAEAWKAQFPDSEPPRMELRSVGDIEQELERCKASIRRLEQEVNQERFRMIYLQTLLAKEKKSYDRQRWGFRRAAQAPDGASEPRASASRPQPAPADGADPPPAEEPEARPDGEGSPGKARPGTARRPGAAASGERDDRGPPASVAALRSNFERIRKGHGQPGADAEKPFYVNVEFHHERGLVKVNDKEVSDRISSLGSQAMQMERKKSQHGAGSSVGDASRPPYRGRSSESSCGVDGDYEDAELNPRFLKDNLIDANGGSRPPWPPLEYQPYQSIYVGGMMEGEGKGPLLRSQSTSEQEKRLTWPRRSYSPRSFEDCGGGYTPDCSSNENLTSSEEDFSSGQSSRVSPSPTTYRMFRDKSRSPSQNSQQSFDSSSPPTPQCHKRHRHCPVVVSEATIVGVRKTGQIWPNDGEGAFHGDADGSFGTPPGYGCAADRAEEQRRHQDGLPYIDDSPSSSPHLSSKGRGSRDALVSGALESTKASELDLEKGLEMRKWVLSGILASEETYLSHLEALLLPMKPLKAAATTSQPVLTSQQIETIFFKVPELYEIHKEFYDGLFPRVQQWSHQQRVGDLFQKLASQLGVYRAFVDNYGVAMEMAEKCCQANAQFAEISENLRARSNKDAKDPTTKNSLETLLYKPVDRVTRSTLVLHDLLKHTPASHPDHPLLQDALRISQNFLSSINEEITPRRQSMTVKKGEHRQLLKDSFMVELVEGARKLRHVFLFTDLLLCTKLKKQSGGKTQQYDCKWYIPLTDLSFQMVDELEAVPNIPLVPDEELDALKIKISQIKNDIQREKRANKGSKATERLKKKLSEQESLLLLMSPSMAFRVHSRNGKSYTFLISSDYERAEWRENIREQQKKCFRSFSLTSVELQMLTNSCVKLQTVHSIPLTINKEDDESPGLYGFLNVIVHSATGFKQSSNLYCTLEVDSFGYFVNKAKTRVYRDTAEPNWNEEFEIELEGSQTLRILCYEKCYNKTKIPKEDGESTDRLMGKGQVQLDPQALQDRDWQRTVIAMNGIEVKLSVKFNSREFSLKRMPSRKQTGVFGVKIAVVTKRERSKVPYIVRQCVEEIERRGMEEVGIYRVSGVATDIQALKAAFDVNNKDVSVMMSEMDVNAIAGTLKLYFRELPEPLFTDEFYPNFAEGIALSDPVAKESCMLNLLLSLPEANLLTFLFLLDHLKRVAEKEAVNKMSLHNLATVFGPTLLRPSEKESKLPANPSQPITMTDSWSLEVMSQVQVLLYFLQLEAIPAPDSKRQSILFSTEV

In test [9] the target is Non-receptor tyrosine-protein kinase TYK2 (Homo sapiens, UniProt P29597).
Chain of Non-receptor tyrosine-protein kinase TYK2 (P29597 whole entry): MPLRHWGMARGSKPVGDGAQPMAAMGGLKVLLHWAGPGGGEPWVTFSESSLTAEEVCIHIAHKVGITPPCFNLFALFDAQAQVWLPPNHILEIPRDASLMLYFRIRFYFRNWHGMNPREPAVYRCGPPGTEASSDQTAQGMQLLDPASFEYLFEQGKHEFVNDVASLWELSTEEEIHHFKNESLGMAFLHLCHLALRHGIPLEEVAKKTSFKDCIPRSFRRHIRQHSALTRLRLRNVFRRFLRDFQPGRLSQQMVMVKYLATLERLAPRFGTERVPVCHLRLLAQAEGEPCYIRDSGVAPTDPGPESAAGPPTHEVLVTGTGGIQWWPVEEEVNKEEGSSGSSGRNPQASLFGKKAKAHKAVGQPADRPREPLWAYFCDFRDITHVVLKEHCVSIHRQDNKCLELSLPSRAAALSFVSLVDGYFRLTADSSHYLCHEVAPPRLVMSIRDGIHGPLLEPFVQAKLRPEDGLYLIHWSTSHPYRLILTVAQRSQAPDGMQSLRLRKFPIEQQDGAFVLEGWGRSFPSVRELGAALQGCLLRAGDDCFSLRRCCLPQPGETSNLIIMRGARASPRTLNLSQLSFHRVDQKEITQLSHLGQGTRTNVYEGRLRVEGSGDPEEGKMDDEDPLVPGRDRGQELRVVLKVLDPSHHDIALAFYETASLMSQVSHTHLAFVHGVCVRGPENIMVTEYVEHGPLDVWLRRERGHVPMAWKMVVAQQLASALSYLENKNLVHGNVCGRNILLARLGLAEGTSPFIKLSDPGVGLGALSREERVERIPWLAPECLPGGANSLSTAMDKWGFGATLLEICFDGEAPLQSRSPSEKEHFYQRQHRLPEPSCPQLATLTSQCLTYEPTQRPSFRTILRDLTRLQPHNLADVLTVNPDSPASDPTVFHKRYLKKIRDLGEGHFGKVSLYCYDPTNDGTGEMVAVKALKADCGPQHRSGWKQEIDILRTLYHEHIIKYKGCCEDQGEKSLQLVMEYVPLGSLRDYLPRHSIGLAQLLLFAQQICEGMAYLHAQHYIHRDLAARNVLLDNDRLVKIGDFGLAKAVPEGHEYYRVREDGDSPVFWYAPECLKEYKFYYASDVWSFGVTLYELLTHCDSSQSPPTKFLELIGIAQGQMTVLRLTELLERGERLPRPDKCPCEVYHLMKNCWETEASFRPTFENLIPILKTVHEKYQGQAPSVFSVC

Drawing on ChEMBL document CHEMBL3991601, “The target landscape of clinical kinase drugs” (Science, 2017), this text covers Kd for eleven molecules.

Active and inactive are the calls of the source. Cut-off read from the data, not from the text of the source, for most assays here: actives have a measured Kd and inactives only a lower limit.

For orientation: Kd means a measure of binding affinity in units of concentration.
Note: in the data inactive means no Kd found up to 30 µM.

Chain of Interleukin-1 receptor-associated kinase 1 (P51617 whole entry): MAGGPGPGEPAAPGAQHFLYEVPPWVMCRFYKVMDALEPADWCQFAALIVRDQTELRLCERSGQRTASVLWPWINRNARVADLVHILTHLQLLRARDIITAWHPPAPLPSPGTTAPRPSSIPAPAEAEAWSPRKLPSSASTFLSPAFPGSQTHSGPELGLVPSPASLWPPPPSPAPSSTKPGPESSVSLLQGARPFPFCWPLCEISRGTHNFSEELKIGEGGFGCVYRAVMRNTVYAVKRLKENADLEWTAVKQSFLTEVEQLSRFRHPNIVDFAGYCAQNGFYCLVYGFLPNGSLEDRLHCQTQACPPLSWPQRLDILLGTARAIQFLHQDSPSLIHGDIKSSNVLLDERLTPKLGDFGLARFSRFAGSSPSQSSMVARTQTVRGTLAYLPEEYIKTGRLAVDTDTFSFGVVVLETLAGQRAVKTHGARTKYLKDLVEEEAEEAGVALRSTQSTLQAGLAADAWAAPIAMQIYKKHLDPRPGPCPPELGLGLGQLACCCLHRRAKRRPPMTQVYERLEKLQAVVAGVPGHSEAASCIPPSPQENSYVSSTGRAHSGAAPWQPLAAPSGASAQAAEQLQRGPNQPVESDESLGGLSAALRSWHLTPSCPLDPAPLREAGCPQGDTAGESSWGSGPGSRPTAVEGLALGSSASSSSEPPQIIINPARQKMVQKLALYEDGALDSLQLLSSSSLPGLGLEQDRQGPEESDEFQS
Chain of Putative heat shock protein HSP 90-beta 2 (Q58FF8 whole entry): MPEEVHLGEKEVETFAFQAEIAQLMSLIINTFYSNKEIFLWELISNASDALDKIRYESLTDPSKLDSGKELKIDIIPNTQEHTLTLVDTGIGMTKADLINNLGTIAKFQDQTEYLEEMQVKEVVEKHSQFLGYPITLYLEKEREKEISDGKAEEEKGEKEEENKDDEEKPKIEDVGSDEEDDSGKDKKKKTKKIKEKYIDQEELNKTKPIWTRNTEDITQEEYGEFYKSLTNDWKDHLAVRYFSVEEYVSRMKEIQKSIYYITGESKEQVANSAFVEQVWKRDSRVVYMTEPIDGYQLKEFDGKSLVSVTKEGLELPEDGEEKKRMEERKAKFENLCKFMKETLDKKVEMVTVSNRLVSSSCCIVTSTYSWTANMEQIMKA

On to `COc1cc2ncnc(Nc3ccc(F)c(Cl)c3)c2cc1NC(=O)/C=C/CN1CCCCC1` [DACOMITINIB ANHYDROUS], for which the Kd (on ADP/ATP translocase 2; in test [1]; in test [2]; in test [3]; in test [4]; in test [5]) was > 30 µM (inactive) each time. Besides, the Kd in test [6], in test [7], in [8] and in test [9] was > 30 µM (inactive) in each case.
As for `COCCN1CCN(Cc2ccc(-c3n[nH]c4c3C(=O)c3c(NC(=O)NN5CCOCC5)cccc3-4)cc2)CC1` [RGB-286638], the Kd (at ADP/ATP translocase 2; in [1]; in [2]; in test [3]; in test [4]; in test [5]) was > 30 µM (inactive) each time. Further, the Kd in test [6] is > 30 µM (inactive); in test [7], > 30 µM (inactive); in test [8], 1.24 µM (active); in [9], > 30 µM (inactive).
With `O=C(NOC[C@H](O)CO)c1ccc(F)c(F)c1Nc1ccc(I)cc1F` [MIRDAMETINIB], the Kd (on ADP/ATP translocase 2; in [1]; in test [2]; in test [3]; in test [4]; in [5]) was > 30 µM (inactive) each time. The Kd in [6], in test [7], in test [8] and in test [9] was > 30 µM (inactive) in each case.
With `CNC(=O)c1cccc(-c2ccc3c(N4CCOC[C@@H]4C)nc(N4CCOC[C@@H]4C)nc3n2)c1` [VISTUSERTIB], the Kd (at ADP/ATP translocase 2; in test [1]; in test [2]; in test [3]; in [4]; in test [5]) was > 30 µM (inactive) in each case. The Kd in test [6], in test [7], in test [8] and in [9] was > 30 µM (inactive) throughout.
With `COc1cc2nccc(Oc3ccc(NC(=O)C4(C(=O)Nc5ccc(F)cc5)CC4)cc3)c2cc1OC` [CABOZANTINIB], the Kd (on ADP/ATP translocase 2; in [1]; in test [2]; in test [3]; in [4]; in test [5]) was > 30 µM (inactive) each time. The Kd in [6] is > 30 µM (inactive); in test [7], > 30 µM (inactive); in test [8], 0.342 µM (active); in test [9] it was > 30 µM (inactive).
As for `Cc1cc(Nc2nc(N[C@@H](C)c3ncc(F)cn3)ncc2Cl)n[nH]1` [AZD-1480], the Kd (at ADP/ATP translocase 2; in [1]; in test [2]; in [3]; in test [4]; in test [5]) was > 30 µM (inactive) throughout. Also, the Kd in [6], in test [7], in [8] and in [9] was > 30 µM (inactive) throughout.
Consider `O=C(Nc1ccc(OC(F)(F)F)cc1)c1sccc1NCc1ccnc2ccccc12` [OSI-930], for which the Kd (at ADP/ATP translocase 2; in [1]; in test [2]; in [3]; in test [4]; in [5]) was > 30 µM (inactive) each time. The Kd in [6], in test [7], in test [8] and in [9] was > 30 µM (inactive) each time.
Turning to `CC1(COc2ccc3c(c2)ncn3-c2ccc3cccc(N4CCC(N)CC4)c3n2)COC1` [CRENOLANIB], the Kd was > 30 µM (inactive) on ADP/ATP translocase 2; > 30 µM (inactive) in [1]; 2.57 µM (active) in [2]; > 30 µM (inactive) in [4]; > 30 µM (inactive) in test [5]; > 30 µM (inactive) in test [6]. The dissociation constant Kd in [7] was 5.02 µM (active); in test [8] it was > 30 µM (inactive); in [9], > 30 µM (inactive).
`CC(C)CC(=O)Nc1[nH]nc2c1CN(C(=O)C1CCN(C)CC1)C2(C)C` [PHA-793887]: the Kd on ADP/ATP translocase 2 was > 30 µM (inactive); in test [1], > 30 µM (inactive); in [2], > 30 µM (inactive); in [5], > 30 µM (inactive); in test [6], > 30 µM (inactive); in test [7], 1 µM (active). Besides, the Kd in [8] and in [9] was > 30 µM (inactive) in each case.
`S=C(NCc1ccc2c(c1)OCO2)N1CCN(c2ncnc3c2oc2ccccc23)CC1` [AMUVATINIB]: the Kd (on ADP/ATP translocase 2; in test [1]; in test [3]; in test [4]; in test [5]; in [6]) was > 30 µM (inactive) each time. Further, the Kd in [7], in [8] and in test [9] was > 30 µM (inactive) in each case.
Turning to `CCc1nc(C(N)=O)c(Nc2ccc(N3CCC(N4CCN(C)CC4)CC3)c(OC)c2)nc1NC1CCOCC1` [GILTERITINIB], the dissociation constant (Kd) is 0.451 µM (active) on ADP/ATP translocase 2; > 30 µM (inactive) in [1]; > 30 µM (inactive) in test [2]; > 30 µM (inactive) in test [3]; > 30 µM (inactive) in test [4]; 3.44 µM (active) in [5]. In addition, the Kd in test [6], in test [8] and in test [9] was > 30 µM (inactive) each time.
